This assay has as its system primary human dermal papilla cells. Kind of assay: Survival of metabolically stressed primary human dermal papilla cells (ATP, Cell Titer Glo). It counts as cell-based. The note with it: for Survival: 48 hr stress, Vehicle = 1.00; for benefit in increasing the survival of stressed dermal papilla cells (in words): additional testing, individual components versus mixture of the three. The text has this:
The dermal papilla, in normal human hair, is the control center for hair diameter and growth. Increasing survival of dermal papilla cells in situ leads to increased hair diameter and to a longer anagen phase which results in longer hair, a higher hair density, and potentially delayed emergence of gray hair. The appearance of this hair results in healthier, younger looking hair. Accordingly, an increase in survival of dermal papilla cells correlates with healthier hair showing an increase in hair diameter, longer hair, higher hair density, and a delayed on-set of gray hair.
Primary human dermal papilla cells were metabolically stressed for 48 hours in reduced standard tissue culture media. During this period of stress the cells were treated with the mixtures below. After 48 hr the metabolic activity of the cells was measured by the amount of ATP using the Cell Titer Glo™ kit (Promega).

As for `Cn1c(=O)c2c(ncn2C)n(C)c1=O` [Caffeine, caffeine], the “benefit in increasing the survival of stressed dermal papilla cells (in words)” value (“benefit in increasing the survival” for short) is “little benefit”. Further, the Survival (Caffeine 0.02%, first series) was found to be 0.94. For the setting “Caffeine 0.05%, second series”, this molecule showed a Survival of 0.98.
As to `NC(=O)c1cccnc1` [Niacinamide, niacinamide], the “benefit in increasing the survival” value is given as “little benefit”. This molecule also gave a Survival (Niacinamide 0.5 mM, second series) of 1.02. Where the note is “Niacinamide 1.5 mM, first series”, this molecule yielded a Survival of 0.71.
In the case of `CC(C)(CO)[C@@H](O)C(=O)NCCCO` [Panthenol, panthenol], the “benefit in increasing the survival” value is recorded as “little benefit”. Under “Panthenol 0.03%, first series”, this molecule came in with a Survival of 1.02. Also, the Survival (Panthenol 0.3%, second series) is 0.75.
Take `O=c1cc(-c2ccc(O)cc2)oc2cc(O)cc(O)c12` [apigenin, 5,7-Dihydroxy-2-(4-hydroxyphenyl)-4H-1-benzopyran-4-one]: the “increase in the hair follicle cells that survived” value (metabolically stressed 48 hr in reduced standard tissue culture media, ATP by Cell Titer Glo, concentrations not given) was 122%.

Values taken from US20120157478A1, “Hair Care Compositions and Methods to Improve Hair Appearance” (priority 2010, published 2012).
